Like-named read-outs stand apart in the source and are kept apart here.
Legend:
[1] = Model-derived miglustat/ATB200 steady state exposure (AUC) ratio; design: species or system mouse; settings: 10 mg/kg miglustat co-administered with 20 mg/kg ATB200
Description: Pharmacokinetic models (Example 8) are used to predict exposure to acid α-glucosidase and miglustat, time-matched to the values for tissue lysosomal glycogen levels in Table 5.

[2] = in vivo; settings: both, Cambodian origin, cynomolgus monkey, in vivo
Experimental: Animals were acclimated to the study room for 18 (females) to 19 (males) days. On the final day of acclimation, animals weighed between 2.243 kg and 5.413 kg and were 2 to 3 years of age.
ATB200 is formulated in 25 mM sodium phosphate buffer, pH 6 containing 2.92 mg/mL sodium chloride, 20 mg/mL mannitol, and 0.5 mg/mL polysorbate 80 (formulation buffer). Test article (ATB200 or miglustat) and control article/vehicle (formulation buffer) were administered once every other week for 13 weeks, starting on Day 1 and ending on Day 85. ATB200 and the control article/vehicle were administered by 2 hour (±10 minute) intravenous (IV) infusion at 0 mg/kg (Group 1, control article), 50 mg/kg (Group 2), or 100 mg/kg (Groups 3 and 5). Miglustat was administered nasogastrically in sterile water for injection, USP, at 25 mg/kg (Group 2) or 175 mg/kg (Groups 3 and 4), 30 minutes (±2 minutes) prior to the start of the infusion for ATB200, when given in combination. The dosing volume across all groups was 10 mL/kg.
Parameters assessed during the in-life phase of the study included body weights, food consumption, clinical observations, detailed clinical observations, physical examinations, electrocardiography, ophthalmic assessments, clinical pathology (hematology, coagulation, serum chemistry), anti-drug antibody (ADA) assessment, neutralizing ADA assessment, urinalysis, and plasma toxicokinetics (TK) for miglustat and ATB200 activity and total protein. Terminal necropsy of animals was performed on Day 99 (14 days after the last dose administration). At necropsy, gross observations and organ weights were recorded, and tissues were collected for microscopic examination.

[3] = Previous studies in non-human primates (exposure); settings: in vivo, po, 175 mg/kg
[4] = Miglustat toxicokinetics; format: in vivo, cynomolgus monkey; settings: for AUC(0-t) / Cmax / half-life / Tmax / Vd/F: cynomolgus monkey, plasma; for Vd/F: read-out: Vz/F
Experimental: Analysis of miglustat concentration was carried out using a LC-MS/MS method analogous to that described for analysis of duvoglustat concentration by Richie Khanna, Allan C. Powe Jr., Yi Lun, Rebecca Soska, Jessie Feng, Rohini Dhulipala, Michelle Frascella, Anadina Garcia, Lee J. Pellegrino, Su Xu, Nastry Brignol, Matthew J. Toth, Hung V. Do, David J. Lockhart, Brandon A. Wustman, Kenneth J. Valenzano. […] Miglustat TK parameters were estimated by the log-linear trapezoidal rule.

[5] = target: ATB200 (Homo sapiens, UniProt P10253, H199R/R223H/V780I); test: Unfolding of ATB200 protein vs. temperature with and without miglustat (FIG. 1); format: physicochemical; settings: various pH
Description: Without being bound by theory, it is believed that miglustat acts as a pharmacological chaperone for the recombinant human acid α-glucosidase ATB200 and binds to its active site. […] However, the binding of miglustat to the active site of ATB200 also can result in inhibition of the enzymatic activity of ATB200 by preventing the natural substrate, glycogen, from accessing the active site.

[6] = target: acid α-glucosidase (Homo sapiens, UniProt P10253); test: Inhibition of acid α-glucosidase activity; format: biochemical
Experimental: Pharmacokinetic models (Example 8) were used to predict the length of time that the plasma or tissue concentrations of duvoglustat (a surrogate of miglustat) would remain above the IC50 (the concentration giving 50% of maximum inhibition of acid α-glucosidase activity) of miglustat in plasma and lysosome. Inhibition of acid α-glucosidase activity is determined by methods described previously (Flanagan J J, Rossi B, Tang K, Wu X, Mascioli K, et al. (2009) “The pharmacological chaperone 1-deoxynojirimycin increases the activity and lysosomal trafficking of multiple mutant forms of acid alpha-glucosidase.” Hum Mutat 30: 1683-1692).

[7] = Cambodian origin, po, 175 mg/kg, Day 85, 100 mg/kg ATB200 + 175 mg/kg miglustat
[8] = Cambodian origin, po, 175 mg/kg, Day 85, 175 mg/kg miglustat monotherapy
[9] = po, 25 mg/kg, Day 1, 50 mg/kg ATB200 + 25 mg/kg miglustat
[10] = po, 25 mg/kg, Day 85, 50 mg/kg ATB200 + 25 mg/kg miglustat
[11] = po, 175 mg/kg, Day 1, 100 mg/kg ATB200 + 175 mg/kg miglustat
[12] = po, 175 mg/kg, Day 1, 175 mg/kg miglustat monotherapy
[13] = po, 175 mg/kg, Day 85, 100 mg/kg ATB200 + 175 mg/kg miglustat
[14] = po, 175 mg/kg, Day 85, 175 mg/kg miglustat monotherapy

## CCCCN1C[C@H](O)[C@@H](O)[C@H](O)[C@H]1CO [miglustat, (2R,3R,4R,5S)-1-butyl-2-(hydroxymethyl)piperidine-3,4,5-triol]
[1]
  miglustat/ATB200 AUC ratio: 0.01159
[2]
  NOAEL at 13 weeks: 175 mg/kg
[3]
  AUC: 196 µg·h/mL
[4]; [7]
  AUC(0-t): 216 µg·h/mL
  Cmax: 22000 ng/mL
[4]; [8]
  AUC(0-t): 204 µg·h/mL
  Cmax: 14700 ng/mL
[4]; Day 1, 50 mg/kg ATB200 + 25 mg/kg miglustat
  CLT/F: 1.92 L/h
[4]; Day 1, 100 mg/kg ATB200 + 175 mg/kg miglustat
  CLT/F: 3.22 L/h
[4]; Day 1, 175 mg/kg miglustat monotherapy
  CLT/F: 3.67 L/h
[4]; Day 85, 50 mg/kg ATB200 + 25 mg/kg miglustat
  CLT/F: 1.99 L/h
[4]; Day 85, 100 mg/kg ATB200 + 175 mg/kg miglustat
  CLT/F: 3.62 L/h
[4]; Day 85, 175 mg/kg miglustat monotherapy
  CLT/F: 3.49 L/h
[4]; both sexes, oral, males and females combined, Days 1 and 85, across groups, read-out: mean t1/2
  half-life: 6.66 to 8.23 h
[4]; oral, postdose, across groups and days
  Tmax: 2 to 4 h
[4]; [9]
  AUC(0-t): 47.3 µg·h/mL
  Cmax: 7430 ng/mL
  Tmax: 2.06 h
  Vd/F: 20.5 L
[4]; po, 25 mg/kg, Day 1, 50 mg/kg ATB200 + 25 mg/kg miglustat, read-out: t1/2 (converted)
  half-life: 7.44 h
[4]; [10]
  AUC(0-t): 49.1 µg·h/mL
  Cmax: 7510 ng/mL
  Tmax: 2.88 h
  Vd/F: 23.3 L
[4]; po, 25 mg/kg, Day 85, 50 mg/kg ATB200 + 25 mg/kg miglustat, read-out: t1/2 (converted)
  half-life: 8.23 h
[4]; [11]
  AUC(0-t): 182 µg·h/mL
  Cmax: 20400 ng/mL
  Tmax: 2.69 h
  Vd/F: 32.3 L
[4]; po, 175 mg/kg, Day 1, 100 mg/kg ATB200 + 175 mg/kg miglustat, read-out: t1/2 (converted)
  half-life: 6.85 h
[4]; [12]
  AUC(0-t): 173 µg·h/mL
  Cmax: 16400 ng/mL
  Vd/F: 35.9 L
[4]; po, 175 mg/kg, Day 1, 175 mg/kg miglustat monotherapy, read-out: t1/2 (converted)
  half-life: 6.86 h
[4]; [13]
  Tmax: 3.56 h
  Vd/F: 39.1 L
[4]; po, 175 mg/kg, Day 85, 100 mg/kg ATB200 + 175 mg/kg miglustat, read-out: t1/2 (converted)
  half-life: 7.86 h
[4]; [14]
  Tmax: 4.13 h
  Vd/F: 33.8 L
[4]; po, 175 mg/kg, Day 85, 175 mg/kg miglustat monotherapy, read-out: t1/2 (converted)
  half-life: 6.66 h
[5]
  percentage of unfolded ATB200 protein: decrease the percentage of unfolded ATB200 protein
[6]; pH of plasma (pH 7.0)
  IC50, inhibition of acid α-glucosidase activity: 0.17 µg/mL
[6]; pH of the lysosomal compartment (pH 5.2)
  IC50: 1720 nM

Reference: patent US20250381254A1, “Augmented Acid Alpha-Glucosidase For The Treatment Of Pompe Disease” (Amicus Therapeutics, Inc., priority 2015, published 2025)
